Measurements reported in US11291670B2, “Therapeutic approaches for treating Alzheimer disease and related disorders through a modulation of angiogenesis” (PHARNEXT, priority 2008, dated 2022).

B1: BDNF: BDNF (50 ng/ml), positive control for neuroprotection (protein, UniProt P23560 19-247, looked up)
Neurotrophic factor BDNF …: APMKEANIRGQGGLAYPGVRTHGTLESVNGPKAGSRGLTSLADTFEHVIEELLDEDQKVRPNEENNKDADLYTSRVMLSSQVPLEPPLLFLLEEYKNYLDAANMSMRVRRHSDPARRGELSVCDSISEWVTAADKKTAVDMSGGTVTVLEKVPVSKGQLKQYFYETKCNPMGYTKEGCRGIDKRHWNSQCRTTQSYVRALTMDSKKRIGWRFIRIDTSCVCTLTIKRGR

Experiments:
Assay type in all cases: cell-based
[1] = system: rat primary cortical cells; assay: human Aβ1-42 toxicity, LDH release in rat primary cortical neurons; conditions: Aβ1-42 10 μM 24 h, 1 hr pre-treatment; FIG. 3
Procedure: Primary rat cortical neurons are cultured as described previously.
Briefly, Aβ1-42 peptide was reconstituted in define culture medium at 40 μM (mother solution) and was slowly shaked at +37° C. for 3 days in dark. The control medium was prepared in the same conditions.
After 10 days of neuron culture, drug was solved in culture medium (+0.1% DMSO) and then pre-incubated with neurons for 1 hour before the Aβ1-42 application (in a final volume per culture well of 100 μl). One hour after drug incubation, 100 μl of Aβ1-42 peptide was added to a final concentration of 10 μM diluted in presence of drug, in order to avoid further drug dilutions. Cortical neurons were intoxicated for 24 hours. Three separate cultures were performed per condition, 6 wells per condition.
BDNF (50 ng/ml) and Estradiol-β (100 and 150 nM) were used as positive control and reference compounds respectively.
The following conditions were assessed: • 1 CONTROL PLAQUE: 12 wells/condition • Negative Control: medium alone+0.1% DMSO • Intoxication: amyloid-β1-42 (10 μM) for 24 h • Positive control: BDNF (50 ng/ml) 1 hr followed by amyloid-β1-42 (10 μM) for 24 h • Reference compound: Estradiol (150 nM) 1 hr followed by amyloid-β1-42 (10 μM) for 24 h. • DRUG PLATE: 6 wells/condition • Negative Control: medium alone+0.1% DMSO • Intoxication: amyloid-β1-42 (10 μM) for 24 h • Drug 1: Drug 1-1 hr followed by amyloid-β1-42(10 μM) for 24 h • Drug 2: Drug 2-1 hr followed by amyloid-β1-42(10 μM) for 24 h Lactate Dehydrogenase (LDH) Activity Assay
This colorimetric assay for the quantification of cell toxicity is based on the measurement of lactate dehydrogenase (LDH) activity released from the cytosol of dying cells into the supernatant.
All values are expressed as mean±s.e.mean of the 3 cultures (n=6 per condition). Statistic analyses were done on the different conditions (ANOVA followed by the Dunnett's test when it was allowed, Statviewi software version 5.0).

[2] = system: Human Brain Microvascular Endothelial Cells (HBMEC); assay: human Aβ1-42 injury in HBMEC, total length of capillary network; conditions: for Effect on intoxication: total length of capillary network in beta-amyloid intoxicated HBMEC cultures: Aβ1-42 2.5 μM, combination versus each drug alone at the same concentrations, FIG. 4-6; for Prevention of Aβ1-42 intoxication in HBMEC (capillary network): drug pretreatment, FIG. 2B, 2C
Procedure: Human brain microvascular endothelial cerebral cells (HBMEC, ScienCell Ref: 1000, frozen at passage 10) were rapidly thawed in a waterbath at +37° C.
The control medium was prepared in the same conditions.
After 3 days, this human amyloid peptide was used on HBMEC at 2.5 μM diluted in control medium (optimal incubation time). The Aβ1-42 peptide was added 2 hours after HBMEC seeding on matrigel for 18 hours incubation.
Capillary Network Quantification
Per well, 2 pictures with 4× lens were taken using InCell Analyzer™ 1000 (GE Healthcare) in light transmission. All images were taken in the same conditions. Analysis of the angiogenesis networks was done using Developer software (GE Healthcare). The total length of capillary network was assessed.
All values are expressed as mean±s.e.mean of the 3 cultures (n=6 per condition). Statistic analyses were done on the different conditions performing an ANOVA followed by the Dunnett's test when it was allowed (Statview software version 5.0). The values (as %) inserted on the graphs show the amyloid toxicity evolution. Indeed, the amyloid toxicity was taken as the 100% and the test compound effect was calculated as a % of this amyloid toxicity.

[3] = system: rat endothelial cerebral cells; assay: Aβ25-35 peptide toxicity, LDH release from rat endothelial cerebral cells; conditions: FIG. 1; for Protective effect against beta-amyloid peptide toxicity on LDH release (prevention of Aβ25-35 intoxication): Aβ25-35 30 μM, 3 days, drug added 1 hour before; for Spontaneous cell death in the culture medium: rat endothelial cerebral cells, LDH release
Procedure: Primo culture of rat endothelial cerebral cells (Vect-Horus SAS, Marseille) is cultivated on passage 0. At confluence, endothelial cells are dissociated with trypsin EDTA (Pan Biotech Ref: P10-023100). Cells are seeded at a density of 25 000 cells/well in 96 well-plates (wells are coated with 30 μl of type I rat collagen at 1.5 mg/ml, Vect-Horus SAS, Marseille) and are cultured in MCBD 131 medium (M−131-500, Invitrogen) supplemented with 1% of microvascular growth supplement (MVGS, S-005-25, Invitrogen). Cells are cultured at 37° C. in a humidified air (95%)/CO2(5%) atmosphere. Half of the medium is changed every other day with fresh medium. After 4 days, drugs are added to the cell culture medium, at different concentrations, solved in DMSO 0.1% or water.
Cells are then intoxicated with 30 μM of β-amyloid (25-35; Sigma) together with drugs in the same culture medium. Cells are then intoxicated during 3 days.
For each culture, after 3 days of intoxication, the supernatant is collected and analyzed with Cytotoxicity Detection Kit (LDH, Roche Applied Sciences). This colorimetric assay for the quantification of cell death is based on the measurement of lactate dehydrogenase (LDH) activity released from the cytosol of damaged cells into the supernatant. The optic density (DO) is assessed by spectrophotometer at 492 nm wavelength by a multiscan apparatus (Thermo, Ref Ascent).
Results presented in FIG. 1 are extracted from two independent cultures, 6 wells per condition. All values are expressed as mean±s.e.m. A bilateral Student's t test analysis is performed on raw data. Results are expressed in percentage of cell viability, compared to the control (vehicle).
Drugs are incubated with rat primary cerebral endothelial cells one hour before Aβ25-35 30 μM intoxication that lasts 3 days.
Three days after this incubation, LDH release in the culture medium is quantified, reflecting the level of cell death.

Row | Molecule | Change of LDH release (Aβ1-42 amyloid injury) in rat primary cortical cells [1] | Effect on intoxication: total length of capillary network in beta-amyloid intoxicated HBMEC cultures [2] | Prevention of Aβ1-42 intoxication in HBMEC (capillary network) [2] | Protective effect against beta-amyloid peptide toxicity on LDH release (prevention of Aβ25-35 intoxication) [3] | Spontaneous cell death in the culture medium [3]
1 | NCC(CC(=O)O)c1ccc(Cl)cc1 (racemic) [Baclofen] | −86% | no significant effect | significantly prevented | – | –
2 | NCC(CC(=O)O)c1ccc(Cl)cc1 (stereo not drawn) [Baclofen (−), Baclofen] | – | – | – | significantly prevented | –
3 | Cc1oncc1C(=O)Nc1ccc(C(F)(F)F)cc1 [Leflunomide] | −62% | – | – | significantly prevented | decrease spontaneous cell death
4 | C[C@@H]1CC(=O)NN=C1c1ccc(NN=C(C#N)C#N)cc1 [Levosimendan] | – | no significant effect | – | – | –
5 | Cc1noc(NS(=O)(=O)c2ccc(N)cc2)c1C [Sulfisoxazole] | – | no significant effect | – | significantly prevented | –
6 | CN(C/C=C/C#CC(C)(C)C)Cc1cccc2ccccc12 [Terbinafine] | – | no significant effect | significantly prevented | significantly prevented | decrease spontaneous cell death
7 | B1 | −95% | – | – | – | –
